# Experiment: Log P by HPLC on reversed phase columns (EEC directive 79/831 Annex V.A8)
# Format: physicochemical
# Protocol: Measurement of Log P values was performed according to EEC directive 79/831 Annex V.A8 by HPLC (High Performance Liquid Chromatography) on reversed phase columns with the following methods:
# Calibration was done with straight-chain alkan2-ones (with 3 to 16 carbon atoms) with known Log P values (measurement of Log P values using retention times with linear interpolation between successive alkanones). Lambda-max-values were determined using UV-spectra from 200 nm to 400 nm and the peak values of the chromatographic signals.
smiles,measurement,setting,value
"CCN(C)/C=N/c1cc(C)c(Oc2ccccc2)cc1Br [Compound (I-4), N′-(2-bromo-5-methyl-4-phenoxyphenyl)-N-ethyl-N-methylimidoformamide]",chromatographic logP,"[a] LC-UV, acidic range, 0.1% formic acid in water and acetonitrile as eluent",4.38
same,chromatographic logP,"[b] LC-UV, neutral range, 0.001 molar ammonium acetate solution in water and acetonitrile as eluent",4.33
